# Read-outs that look alike come from different tables or passages of the source.
# Columns and labels:
# [1] = free base (non-protonated) nicotine; cited from earlier work
compound,measurement,setting,value
"CN1CCCC1c1cccnc1 (stereo not drawn) [nicotine, 3-(1-methyl-2-pyrrolidinyl) pyridine]",pKa value,[1],about 8
same,partition coefficient (oil phase : aqueous phase),"Samples 1-4: MCT oil vs DI water, basified DI water pH 7.4, artificial saliva pH 6.8, acidified DI water pH 2",greater than 1
same,partition coefficient (oil phase : aqueous phase),"Samples 5-8: MCT, triacetin or triolein oil vs 1M acetic acid pH adjuster, pH 2",less than 1

# Source: patent publication US20240189297A1 (priority 2021, published 2024)
